# What was measured:
# Cavia porcellus [1] = organism: Cavia porcellus; test: Inhibition of Hartley guinea pig PDE4 assessed as hydrolization of cAMP by measuring [3H]cAMP at 100 nM by radioisotope method
# Cavia porcellus [2] = test: Induction of bronchodilation in ovalbumin-sensitized guinea pig at 10 mg/kg, po administered 4 hrs prior to ovalbumin challenge measured for 20 mins relative to vehicle-treated control; type: functional
# Mustela putorius furo [3] = test: Toxicity in Marshall ferret assessed as vomiting at 10 mg/kg, po after 2 hrs; type: organism-based; set-up: dose 10 mg/kg, route oral; details: in vivo
# Cavia porcellus [4] = test: Induction of bronchodilation in ovalbumin-sensitized guinea pig at 10 mg/kg, po administered 1 hr prior to ovalbumin challenge measured for 20 mins relative to vehicle-treated control; type: functional
# Mustela putorius furo [5] = test: Toxicity in po dosed Marshall ferret assessed as vomiting; type: organism-based; details: in vivo
# Mustela putorius furo [6] = test: Toxicity in Marshall ferret assessed as vomiting at 1 mg/kg, po after 2 hrs; type: organism-based; set-up: dose 1 mg/kg, route oral; details: in vivo
# Mus musculus = test: Inhibition of eosinophil infiltration in ovalbumin-sensitized mouse at 10 mg/kg, po qd for 2 days administered 30 mins prior to ovalbumin challenge relative to vehicle-treated control; type: functional
# [7] = Drug level in ovalbumin-sensitized guinea pig brain assessed as radioactivity at 10 mg/kg, po after 0.5 hrs; type: ADME, organism-based, Cavia porcellus; set-up: dose 10 mg/kg, route oral; details: in vivo
# [8] = Drug level in ovalbumin-sensitized guinea pig trachea treated with [14C]-2-(3-chlorophenoxy)-3-[3-(3-hydroxypyridin-4-yl)propoxy]pyridine at 10 mg/kg, po after 0.5 hrs; type: ADME, organism-based, Cavia porcellus; set-up: dose 10 mg/kg, route oral; details: in vivo
# [9] = Inhibition of Hartley guinea pig PDE4 assessed as hydrolization by radioisotope method; set-up: species or system Cavia porcellus
# Mustela putorius furo [10] = test: Toxicity in Marshall ferret assessed as vomiting at 300 mg/kg, po after 2 hrs; type: organism-based; set-up: dose 300 mg/kg, route oral; details: in vivo
# Cavia porcellus [11] = organism: Cavia porcellus; test: Inhibition of late asthmatic response in ovalbumin-sensitized guinea pig; type: functional
# [12] = Drug level in ovalbumin-sensitized guinea pig plasma assessed as radioactivity at 10 mg/kg, po after 4 hrs; type: ADME, organism-based, Cavia porcellus; set-up: dose 10 mg/kg, route oral; details: in vivo
# [13] = Drug level in ovalbumin-sensitized guinea pig lung treated with [14C]-2-(3-chlorophenoxy)-3-[3-(3-hydroxypyridin-4-yl)propoxy]pyridine at 10 mg/kg, po after 0.5 hrs; type: ADME, organism-based, Cavia porcellus; set-up: dose 10 mg/kg, route oral; details: in vivo
# [14] = Drug level in ovalbumin-sensitized guinea pig lung treated with [14C]-2-(3-chlorophenoxy)-3-[3-(3-hydroxypyridin-4-yl)propoxy]pyridine at 10 mg/kg, po after 4 hrs; type: ADME, organism-based, Cavia porcellus; set-up: dose 10 mg/kg, route oral; details: in vivo
# [15] = Drug level in ovalbumin-sensitized guinea pig trachea assessed as radioactivity at 10 mg/kg, po after 4 hrs; type: ADME, organism-based, Cavia porcellus; set-up: dose 10 mg/kg, route oral; details: in vivo
# [16] = Drug level in ovalbumin-sensitized guinea pig brain assessed as radioactivity at 10 mg/kg, po after 4 hrs; type: ADME, organism-based, Cavia porcellus; set-up: dose 10 mg/kg, route oral; details: in vivo
# [17] = Drug level in ovalbumin-sensitized guinea pig plasma assessed as radioactivity at 10 mg/kg, po after 2 hrs; type: ADME, organism-based, Cavia porcellus; set-up: dose 10 mg/kg, route oral; details: in vivo
# [18] = Drug level in ovalbumin-sensitized guinea pig trachea assessed as radioactivity at 10 mg/kg, po after 2 hrs; type: ADME, organism-based, Cavia porcellus; set-up: dose 10 mg/kg, route oral; details: in vivo
# [19] = Drug level in ovalbumin-sensitized guinea pig lung assessed as radioactivity at 10 mg/kg, po after 0.5 hrs; type: ADME, organism-based, Cavia porcellus; set-up: dose 10 mg/kg, route oral; details: in vivo
# [20] = Drug level in ovalbumin-sensitized guinea pig plasma treated with [14C]-2-(3-chlorophenoxy)-3-[3-(3-hydroxypyridin-4-yl)propoxy]pyridine at 10 mg/kg, po after 0.5 hrs; type: ADME, organism-based, Cavia porcellus; set-up: dose 10 mg/kg, route oral; details: in vivo
# Mustela putorius furo [21] = test: Toxicity in Marshall ferret assessed as vomiting at 30 mg/kg, po after 2 hrs; type: organism-based; set-up: dose 30 mg/kg, route oral; details: in vivo
# [22] = Drug level in ovalbumin-sensitized guinea pig brain assessed as radioactivity at 10 mg/kg, po after 2 hrs; type: ADME, organism-based, Cavia porcellus; set-up: dose 10 mg/kg, route oral; details: in vivo
# [23] = Inhibition of bovine PDE3; set-up: species or system Bos taurus
# [24] = Drug level in ovalbumin-sensitized guinea pig lung assessed as radioactivity at 10 mg/kg, po after 2 hrs; type: ADME, organism-based, Cavia porcellus; set-up: dose 10 mg/kg, route oral; details: in vivo
# [25] = Drug level in ovalbumin-sensitized guinea pig lung assessed as radioactivity at 10 mg/kg, po after 4 hrs; type: ADME, organism-based, Cavia porcellus; set-up: dose 10 mg/kg, route oral; details: in vivo
# Cavia porcellus [26] = organism: Cavia porcellus; test: Inhibition of immediate asthmatic response in ovalbumin-sensitized guinea pig; type: functional
# [27] = Drug level in ovalbumin-sensitized guinea pig plasma assessed as radioactivity at 10 mg/kg, po after 0.5 hrs; type: ADME, organism-based, Cavia porcellus; set-up: dose 10 mg/kg, route oral; details: in vivo
# Phosphodiesterase 4 = Phosphodiesterase 4 (Homo sapiens, UniProt P27815+Q08499+Q07343+Q08493); test: Inhibition of human PDE4; type: protein assay
# [28] = Drug level in ovalbumin-sensitized guinea pig trachea assessed as radioactivity at 10 mg/kg, po after 0.5 hrs; type: ADME, organism-based, Cavia porcellus; set-up: dose 10 mg/kg, route oral; details: in vivo
# [29] = Drug level in ovalbumin-sensitized guinea pig lung treated with [14C]-2-(3-chlorophenoxy)-3-[3-(3-hydroxypyridin-4-yl)propoxy]pyridine at 10 mg/kg, po after 2 hrs; type: ADME, organism-based, Cavia porcellus; set-up: dose 10 mg/kg, route oral; details: in vivo
# [30] = Drug level in ovalbumin-sensitized guinea pig trachea treated with [14C]-2-(3-chlorophenoxy)-3-[3-(3-hydroxypyridin-4-yl)propoxy]pyridine at 10 mg/kg, po after 4 hrs; type: ADME, organism-based, Cavia porcellus; set-up: dose 10 mg/kg, route oral; details: in vivo
# [31] = Drug level in ovalbumin-sensitized guinea pig trachea treated with [14C]-2-(3-chlorophenoxy)-3-[3-(3-hydroxypyridin-4-yl)propoxy]pyridine at 10 mg/kg, po after 2 hrs; type: ADME, organism-based, Cavia porcellus; set-up: dose 10 mg/kg, route oral; details: in vivo
# [32] = Drug level in ovalbumin-sensitized guinea pig plasma treated with [14C]-2-(3-chlorophenoxy)-3-[3-(3-hydroxypyridin-4-yl)propoxy]pyridine at 10 mg/kg, po after 2 hrs; type: ADME, organism-based, Cavia porcellus; set-up: dose 10 mg/kg, route oral; details: in vivo
# [33] = Drug level in ovalbumin-sensitized guinea pig plasma treated with [14C]-2-(3-chlorophenoxy)-3-[3-(3-hydroxypyridin-4-yl)propoxy]pyridine at 10 mg/kg, po after 4 hrs; type: ADME, organism-based, Cavia porcellus; set-up: dose 10 mg/kg, route oral; details: in vivo
structure (smiles),measurement,setting,value
COc1ccc(C2CNC(=O)C2)cc1OC1CCCC1 (centres undefined) [ROLIPRAM],inhibition,Cavia porcellus [1],54%
same,Activity,Cavia porcellus [2],13%
same,Activity,Mustela putorius furo [3],Toxic
same,Activity,Cavia porcellus [4],50%
same,Activity,Mustela putorius furo [5],Dose-dependent effect
same,Activity,Mustela putorius furo [6],Non-toxic
Oc1cnccc1CCCOc1cccnc1Sc1cccc(Br)c1,inhibition in vivo at 10 mg/kg,Mus musculus,33%
same,inhibition,Cavia porcellus [1],66%
same,Activity,Cavia porcellus [4],8%
Oc1cnccc1CCCOc1cccnc1Oc1cccc(Cl)c1,Drug uptake,[7],31.9 ngequiv/g
same,Drug uptake,[8],14.4 ngequiv/g
same,IC50,[9],0.038 µM
same,Activity,Mustela putorius furo [10],Non-toxic
same,inhibition (INH),Cavia porcellus [11],40%
same,Cp,[12],346.2 ngequiv/ml
same,Drug uptake,[13],21 ngequiv/g
same,Drug uptake,[14],7.7 ngequiv/g
same,Drug uptake,[15],90.1 ngequiv/g
same,inhibition,Cavia porcellus [1],75%
same,Drug uptake,[16],14.5 ngequiv/g
same,Cp,[17],452.8 ngequiv/ml
same,Drug uptake,[18],85.1 ngequiv/g
same,Activity,Cavia porcellus [2],45%
same,Activity,Mustela putorius furo [3],Non-toxic
same,Drug uptake,[19],251.2 ngequiv/g
same,Cp,[20],1.7 ngequiv/ml
same,Activity,Mustela putorius furo [21],Non-toxic
same,Drug uptake,[22],17.7 ngequiv/g
same,IC50,[23],> 30 µM
same,Drug uptake,[24],232.9 ngequiv/g
same,Drug uptake,[25],178.7 ngequiv/g
same,Activity,Cavia porcellus [4],55%
same,inhibition (INH),Cavia porcellus [26],45%
same,Cp,[27],387.6 ngequiv/ml
same,IC50,Phosphodiesterase 4,0.033 µM
same,Drug uptake,[28],142.1 ngequiv/g
same,Drug uptake,[29],12.8 ngequiv/g
Oc1cnccc1CCCOc1cccnc1Cc1cccc(Br)c1,inhibition in vivo at 10 mg/kg,Mus musculus,44%
same,inhibition,Cavia porcellus [1],87%
same,Activity,Cavia porcellus [4],13%
Brc1cccc(Sc2ncccc2OCCCc2ccncc2)c1,inhibition in vivo at 10 mg/kg,Mus musculus,50%
same,inhibition,Cavia porcellus [1],80%
same,Activity,Mustela putorius furo [21],Toxic
same,Activity,Cavia porcellus [4],77%
same,Activity,Mustela putorius furo [5],Dose-dependent effect
Oc1cnccc1CCCOc1cccnc1Oc1cccc(F)c1,inhibition,Cavia porcellus [1],74%
same,Activity,Cavia porcellus [2],9%
same,Activity,Cavia porcellus [4],55%
O=S(=O)(O)Oc1cnccc1CCCOc1cccnc1Oc1cccc(Cl)c1,Drug uptake,[8],17.2 ngequiv/g
same,IC50,[9],0.837 µM
same,Drug uptake,[30],44 ngequiv/g
same,Drug uptake,[31],34.4 ngequiv/g
same,Drug uptake,[13],29.2 ngequiv/g
same,Drug uptake,[14],79.9 ngequiv/g
same,Cp,[20],43.8 ngequiv/ml
same,Cp,[32],219.2 ngequiv/ml
same,Cp,[33],194.4 ngequiv/ml
same,Drug uptake,[29],78.9 ngequiv/g
Oc1cnccc1CCCOc1cccnc1Oc1ccccc1Cl,inhibition,Cavia porcellus [1],30%
O=C(O)[C@H]1O[C@@H](Oc2cnccc2CCCOc2cccnc2Oc2cccc(Cl)c2)[C@H](O)[C@@H](O)[C@@H]1O,Drug uptake,[8],53.6 ngequiv/g
same,IC50,[9],11.5 µM
same,Drug uptake,[30],28.1 ngequiv/g
same,Drug uptake,[31],33.7 ngequiv/g
same,Drug uptake,[13],46.5 ngequiv/g
same,Drug uptake,[14],33.8 ngequiv/g
same,Cp,[20],130.4 ngequiv/ml
same,Cp,[32],130.8 ngequiv/ml
same,Cp,[33],79.3 ngequiv/ml
same,Drug uptake,[29],59.5 ngequiv/g
Brc1cccc(Oc2ncccc2OCCCc2ccncc2)c1,inhibition in vivo at 10 mg/kg,Mus musculus,23%
same,inhibition,Cavia porcellus [1],80%
same,Activity,Cavia porcellus [4],49%
Oc1cnccc1CCCOc1cccnc1Oc1cc(Cl)cc(Cl)c1,inhibition,Cavia porcellus [1],6%
Oc1cnccc1CCCOc1cccnc1Oc1cccc(Br)c1,inhibition in vivo at 10 mg/kg,Mus musculus,50%
same,inhibition,Cavia porcellus [1],77%
same,Activity,Cavia porcellus [2],12%
same,Activity,Mustela putorius furo [21],Non-toxic
same,Activity,Cavia porcellus [4],70%
Brc1cccc(Nc2ncccc2OCCCc2ccncc2)c1,inhibition,Cavia porcellus [1],51%
Brc1cccc(Cc2ncccc2OCCCc2ccncc2)c1,inhibition in vivo at 10 mg/kg,Mus musculus,43%
same,inhibition,Cavia porcellus [1],89%
same,Activity,Cavia porcellus [4],63%
O=C(c1cccc(Br)c1)c1ncccc1OCCCc1ccncc1,inhibition,Cavia porcellus [1],27%
Oc1cnccc1CCCOc1cccnc1Oc1ccc(Cl)cc1,inhibition,Cavia porcellus [1],46%
